A short description of data set [1]: Cytotoxicity against african green monkey BSC1 cells at 60 ug/disk. The class given is cell-based. To be noted: chlorocebus aethiops, bsc-1.
For data set [2], the system named is Candida albicans. The experiment in a line: Antifungal activity against Candida albicans at 60 ug/disk. It counts as functional. To be noted: read-out: IZ.
Data set [3] has as its system Trichophyton mentagrophytes. The experiment in a line: Antifungal activity against Trichophyton mentagrophytes at 60 ug/disk. The note with it: read-out: IZ. The class given is functional.

SMILES strings stand for the structures.

With `COC(=O)c1ccc(OCC=C(C)C)c(OC)c1`, in data set [1], the Activity was 50%. In addition, the values for the zone of inhibition at 60 µg/disc in data set [2] and in data set [3] were 1 mm and 2 mm, respectively.

In the case of `COC(=O)c1ccc(O)c(OC)c1` [METHYL VANILLATE], the Activity in data set [1] is 25%. The zone of inhibition at 60 µg/disc in data set [2] and in data set [3] was 0 mm in each case.

The values above are taken from ChEMBL document CHEMBL1158265, “Isoprenyl phenyl ethers from liverworts of the genus Trichocolea: cytotoxic activity, structural corrections, and synthesis” (J Nat Prod, 1996).
